# According to US12453779B2, “Chemoselective thiol-conjugation with alkene or alkyne-phosphonothiolates and -phosphonates” (FORSCHUNGSVERBUND BERLIN E.V., priority 2018, dated 2025):
# Test system: CD30-overexpressing cell line Karpas 299
# Experiment: Cell based antiproliferation (resazurin) assay, Karpas 299
# Settings: Karpas 299, 96 hours of treatment, Brentuximab-NA3 DAR=3.15
substance,measurement,value
Brentuximab: CD30-addressing antibody,growth inhibition (cell viability),does not show growth inhibition
